Here are results for two substances from PMC5753150 (Beilstein Journal of Organic Chemistry, 2017).

Data set [1] has as its system dipeptidyl peptidase. To be noted: wild-type peptide; cited from earlier work. From the text: Several laboratories have focused on introducing highly fluorinated analogues of hydrophobic amino acids and have studied the effects on stability of the resulting proteins towards thermal and chemical denaturation. These studies prompted further investigation into the extent to which fluorinated amino acids stabilize peptides and proteins against proteolytic degradation in particular. Meng and Kumar reported that the incorporation of 5,5,5,5’,5’,5’-hexafluoroleucine (HfLeu) into the antimicrobial peptides magainin 2 amide and buforin enhanced their resistance towards proteolyt ...

In data set [2] the test system is pepsin (EC 3.4.23.1). The data set is described as follows: pepsin in 10 mM acetate buffer, pH 4.0. The following applies: porcine stomach mucosa, 30 °C, up to 24 h.
The subject of data set [3] is elastase (EC 3.4.21.36). The data set is described as follows: elastase in 100 mM Tris/HCl buffer, pH 8.4. The following applies: porcine pancreas, 37 °C, up to 24 h.
Data set [4] has as its system α-chymotrypsin (EC 3.4.21.1). The data set is described as follows: α-chymotrypsin in 10 mM phosphate buffer, pH 7.4. The following applies: bovine pancreas, 30 °C, up to 24 h.
The subject of data set [5] is elastase (from porcine pancreas, EC 3.4.21.36). The data set is described as follows: elastase in 100 mM Tris/HCl buffer, pH 8.4. To be noted: 37 °C, up to 24 h.
Data set [6] concerns proteinase K (EC 3.4.21.64). The data set is described as follows: proteinase K in 50 mM Tris/HCl buffer, containing 10 mM CaCl2 pH 7.5. To be noted: tritirachium album, 37 °C, up to 24 h.

Consider glucagon-like-peptide-1 [GLP-1], for which the “Time of rapid digestion by the serine protease dipeptidyl peptidase” value in data set [1] is recorded as “≈ 2 min”.
Regarding Abz-KAAFALeuAAK, the cleaved bond entry was “F-A” in data set [2]; “A-A and A-Leu and A-K” in data set [3]; “F-A, major” in data set [4]; “A-F and Leu-A” in data set [6]. In addition, in data set [5], the not cleaved result is listed as “no fragments with Phe in P1 observed”.
